Data published in patent US11986532B2 (Arvinas Operations, Inc., priority 2021, dated 2024).
Like-named read-outs stand apart in the source and are kept apart here.

Biological target: T1, BCL6 (Homo sapiens, UniProt P41182)
T1 construct: endogenous in cells; host or cells: T47D breast cancer epithelial cells
Assay: Immunofluorescence protocol for high content imaging of BCL6 (degradation) in T47D cells, 3 days compound treatment
Format: cell-based
Conditions: for Dmax: read-out: Mean Dmax (%)** category; for DC50: read-out: Mean DC50 (nM)* category
In short: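 High content immunofluorescence imaging (10×, 4 fields/well) of BCL6 using rabbit primary antibody, Alexa-488 secondary, cell mask and Hoechst nuclear stain after PFA fixation. Before staining, T47D cells (7K/well) were exposed for 3 days at 37° C to 3-fold serial dilutions of compound, top final concentration 0.1 or 1 μM.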

[1] = T47D cells, 3 days compound treatment

Row | Dmax (T47D) | DC50 | DC50 [1] | Dmax [1] | SMILES
1 | 50 to 70% | < 10 nM |  |  | CNC(=O)COc1cc2cc(Nc3nc(N4CCC(CN5CCN(c6ccc7c(c6F)CN(C6CCC(=O)NC6=O)C7=O)CC5)CC4)ncc3Cl)ccc2n(C(C)C)c1=O (centres unmarked) [Compound 322, 2-{[6-({5-chloro-2-[4-({4-[2-(2,6-dioxopiperidin-3-yl)-4-fluoro-1-oxo-2,3-dihydro-1H-isoindol-5-yl]piperazin-1-yl}methyl)piperidin-1-yl]pyrimidin-4-yl}amino)-2-oxo-1-(propan-2-yl)-1,2-dihydroquinolin-3-yl]oxy}-N-methylacetamide]
2 | ≥ 70% | 10 to 50 nM |  |  | CNC(=O)COc1cc2cc(Nc3nc(N4CCC(CN5CC(N6CCN(c7ccc8c(c7)C(=O)N(C7CCC(=O)NC7=O)C8=O)CC6)C5)CC4)ncc3Cl)ccc2n(C(C)C)c1=O (centres unmarked) [Compound 241, 2-({6-[(5-chloro-2-{4-[(3-{4-[2-(2,6-dioxopiperidin-3-yl)-1,3-dioxo-2,3-dihydro-1H-isoindol-5-yl]piperazin-1-yl}azetidin-1-yl)methyl]piperidin-1-yl}pyrimidin-4-yl)amino]-2-oxo-1-(propan-2-yl)-1,2-dihydroquinolin-3-yl}oxy)-N-methylacetamide]
3 | 50 to 70% | < 10 nM |  |  | [2H]C([2H])([2H])Oc1c(N2CC3(CCN(CC4CCN(c5ncc(Cl)c(Nc6ccc7c(c6)cc(OCC(=O)NC)c(=O)n7C(C)C)n5)CC4)CC3)C2(C)C)ccc2c1CN(C1CCC(=O)NC1=O)C2=O (centres unmarked) [Compound 227, 2-{[6-({5-chloro-2-[4-({2-[2-(2,6-dioxopiperidin-3-yl)-4-(^2H3)methoxy-1-oxo-2,3-dihydro-1H-isoindol-5-yl]-1,1-dimethyl-2,7-diazaspiro[3.5]nonan-7-yl}methyl)piperidin-1-yl]pyrimidin-4-yl}amino)-2-oxo-1-(propan-2-yl)-1,2-dihydroquinolin-3-yl]oxy}-N-methylacetamide]
4 | 50 to 70% | < 10 nM |  |  | CNC(=O)COc1cc2c(F)c(Nc3cc(N4CCC(F)(CN5CCC6(CC5)CN(c5ccc7c(c5F)CN(C5CCC(=O)NC5=O)C7=O)C6)CC4)ncc3Cl)ccc2n(C(C)C)c1=O (centres unmarked) [Compound 259, 2-{[6-({5-chloro-2-[4-({2-[2-(2,6-dioxopiperidin-3-yl)-4-fluoro-1-oxo-2,3-dihydro-1H-isoindol-5-yl]-2,7-diazaspiro[3.5]nonan-7-yl}methyl)-4-fluoropiperidin-1-yl]pyridin-4-yl}amino)-5-fluoro-2-oxo-1-(propan-2-yl)-1,2-dihydroquinolin-3-yl]oxy}-N-methylacetamide]
5 |  |  | ≥ 100 nM | ≥ 70% | CNC(=O)COc1cc2cc(Nc3nc(N4CCC(O[C@H]5CC[C@@H](N6CCC(c7ccc8c(c7)C(=O)N(C7CCC(=O)NC7=O)C8=O)CC6)CC5)CC4)ncc3Cl)ccc2n(C(C)C)c1=O (some centres unmarked) [Compound 110, 2-[(6-{[5-chloro-2-(4-{[(1s,4s)-4-{4-[2-(2,6-dioxopiperidin-3-yl)-1,3-dioxo-2,3-dihydro-1H-isoindol-5-yl]piperidin-1-yl}cyclohexyl]oxy}piperidin-1-yl)pyrimidin-4-yl]amino}-2-oxo-1-(propan-2-yl)-1,2-dihydroquinolin-3-yl)oxy]-N-methylacetamide]
6 |  |  | < 10 nM | ≥ 70% | CNC(=O)COc1cc2cc(Nc3nc(N4CCC(O[C@H]5C[C@H](N6CCN(c7ccc8c(n7)CN(C7CCC(=O)NC7=O)C8=O)[C@@H](C)C6)C5)CC4)ncc3Cl)ccc2n(C(C)C)c1=O (some centres unmarked) [Compound 192]
7 |  |  | < 10 nM | 50 to 70% | CNC(=O)COc1cc2cc(Nc3nc(N4CCC(O[C@H]5CC[C@H](N(C)C6CN(c7cccc8c7C(=O)N(C7CCC(=O)NC7=O)C8=O)C6)CC5)CC4)ncc3Cl)ccc2n(C(C)C)c1=O (some centres unmarked) [Compound 108, 2-[(6-{[5-chloro-2-(4-{[(1r,4r)-4-({1-[2-(2,6-dioxopiperidin-3-yl)-1,3-dioxo-2,3-dihydro-1H-isoindol-4-yl]azetidin-3-yl}(methyl)amino)cyclohexyl]oxy}piperidin-1-yl)pyrimidin-4-yl]amino}-2-oxo-1-(propan-2-yl)-1,2-dihydroquinolin-3-yl)oxy]-N-methylacetamide]
8 |  |  | < 10 nM | 50 to 70% | CNC(=O)COc1cc2cc(Nc3nc(N4CCC(OC5CN([C@H]6CC[C@@H](c7ccc8c(c7)CN(C7CCC(=O)NC7=O)C8=O)CC6)C5)CC4)ncc3Cl)ccc2n(C(C)C)c1=O (single isomer, unassigned) [Compound 166, 2-[[6-[[5-chloro-2-[4-[1-[4-[2-(2,6-dioxo-3-piperidyl)-1-oxo-isoindolin-5-yl]cyclohexyl]azetidin-3-yl]oxy-1-piperidyl]pyrimidin-4-yl]amino]-1-isopropyl-2-oxo-3-quinolyl]oxy]-N-methyl-acetamide]
9 |  |  | < 10 nM | 50 to 70% | CNC(=O)COc1cc2cc(Nc3nc(N4CCC(CN5CCC6(CCN(c7ccc8c(c7)CN(C7CCC(=O)NC7=O)C8=O)C6)C5=O)CC4)ncc3Cl)ccc2n(C(C)C)c1=O (centres unmarked) [Compound 60, 2-{[6-({5-chloro-2-[4-({7-[2-(2,6-dioxopiperidin-3-yl)-1-oxo-2,3-dihydro-1H-isoindol-5-yl]-1-oxo-2,7-diazaspiro[4.4]nonan-2-yl}methyl)piperidin-1-yl]pyrimidin-4-yl}amino)-2-oxo-1-(propan-2-yl)-1,2-dihydroquinolin-3-yl]oxy}-N-methylacetamide]
10 |  |  | < 10 nM | 50 to 70% | CNC(=O)COc1cc2cc(Nc3nc(N4CCC(O[C@H]5CC[C@H](N6CCC(c7ccc8c(c7)C(=O)N(C7CCC(=O)NC7=O)C8=O)CC6)CC5)CC4)ncc3Cl)ccc2n(C(C)C)c1=O (some centres unmarked) [Compound 117, 2-[(6-{[5-chloro-2-(4-{[(1r,4r)-4-{4-[2-(2,6-dioxopiperidin-3-yl)-1,3-dioxo-2,3-dihydro-1H-isoindol-5-yl]piperidin-1-yl}cyclohexyl]oxy}piperidin-1-yl)pyrimidin-4-yl]amino}-2-oxo-1-(propan-2-yl)-1,2-dihydroquinolin-3-yl)oxy]-N-methylacetamide]
11 | 50 to 70% | < 10 nM |  |  | CNC(=O)COc1cc2cc(Nc3nc(N4CCC(N(C)C5CCC6(CC5)CN(c5ccc7c(c5)C(=O)N(C5CCC(=O)NC5=O)C7=O)C6)CC4)ncc3Cl)ccc2n(C(C)C)c1=O (centres unmarked) [Compound 308, 2-{[6-({5-chloro-2-[4-({2-[2-(2,6-dioxopiperidin-3-yl)-1,3-dioxo-2,3-dihydro-1H-isoindol-5-yl]-2-azaspiro[3.5]nonan-7-yl} (methyl)amino)piperidin-1-yl]pyrimidin-4-yl}amino)-2-oxo-1-(propan-2-yl)-1,2-dihydroquinolin-3-yl]oxy}-N-methylacetamide]
12 |  |  | < 10 nM | < 50% | CNC(=O)COc1cc2cc(Nc3nc(N4CCN(CC5CCN(c6cc7c(cc6OC)C(=O)N(C6CCC(=O)NC6=O)C7)CC5)CC4)ncc3Cl)ccc2n(C(C)C)c1=O (centres unmarked) [Compound 21, 2-{[6-({5-chloro-2-[4-({1-[2-(2,6-dioxopiperidin-3-yl)-6-methoxy-1-oxo-2,3-dihydro-1H-isoindol-5-yl]piperidin-4-yl}methyl)piperazin-1-yl]pyrimidin-4-yl}amino)-2-oxo-1-(propan-2-yl)-1,2-dihydroquinolin-3-yl]oxy}-N-methylacetamide]
13 | 50 to 70% | 10 to 50 nM |  |  | CNC(=O)COc1cc2cc(Nc3nc(N4CCC(N5CCC56CN(C5CCN(c7ccc8c(c7)C(=O)N(C7CCC(=O)NC7=O)C8=O)CC5)C6)CC4)ncc3Cl)ccc2n(C(C)C)c1=O (centres unmarked) [Compound 220, 2-{[6-({5-chloro-2-[4-(6-{1-[2-(2,6-dioxopiperidin-3-yl)-1,3-dioxo-2,3-dihydro-1H-isoindol-5-yl]piperidin-4-yl}-1,6-diazaspiro[3.3]heptan-1-yl)piperidin-1-yl]pyrimidin-4-yl}amino)-2-oxo-1-(propan-2-yl)-1,2-dihydroquinolin-3-yl]oxy}-N-methylacetamide]

Row | SMILES | Dmax (T47D) | DC50 | DC50 [1] | Dmax [1]
14 | CNC(=O)COc1cc2cc(Nc3nc(N4CCC(O[C@H]5C[C@H](N6CCC7(CCN(c8ccc9c(c8)C(=O)N(C8CCC(=O)NC8=O)C9=O)C7)CC6)C5)CC4)ncc3Cl)ccc2n(C(C)C)c1=O (some centres unmarked) [Compound 360, 2-({6-[(5-chloro-2-{4-[(1r,3r)-3-{2-[2-(2,6-dioxopiperidin-3-yl)-1,3-dioxo-2,3-dihydro-1H-isoindol-5-yl]-2,8-diazaspiro[4.5]decan-8-yl}cyclobutoxy]piperidin-1-yl}pyrimidin-4-yl)amino]-2-oxo-1-(propan-2-yl)-1,2-dihydroquinolin-3-yl}oxy)-N-methylacetamide] | 50 to 70% | < 10 nM |  | 
15 | CNC(=O)COc1cc2cc(Nc3nc(N4CCC(O[C@H]5C[C@H](N6CC=C(c7ccc8c(c7Cl)CN(C7CCC(=O)NC7=O)C8=O)CC6)C5)CC4)ncc3Cl)ccc2n(C(C)C)c1=O (some centres unmarked) [Compound 429, 2-({6-[(5-chloro-2-{4-[(1r,3r)-3-{4-[4-chloro-2-(2,6-dioxopiperidin-3-yl)-1-oxo-2,3-dihydro-1H-isoindol-5-yl]-1,2,3,6-tetrahydropyridin-1-yl}cyclobutoxy]piperidin-1-yl}pyrimidin-4-yl)amino]-2-oxo-1-(propan-2-yl)-1,2-dihydroquinolin-3-yl}oxy)-N-methylacetamide] | ≥ 70% | < 10 nM |  | 
16 | CNC(=O)COc1cc2cc(Nc3nc(N4CCC(O[C@H]5C[C@H](N6CCC7(CN(c8ccc9c(c8)C(=O)N(C8CCC(=O)NC8=O)C9=O)C7)C6)C5)CC4)ncc3Cl)ccc2n(C(C)C)c1=O (some centres unmarked) [Compound 338, 2-({6-[(5-chloro-2-{4-[(1r,3r)-3-{2-[2-(2,6-dioxopiperidin-3-yl)-1,3-dioxo-2,3-dihydro-1H-isoindol-5-yl]-2,6-diazaspiro[3.4]octan-6-yl}cyclobutoxy]piperidin-1-yl}pyrimidin-4-yl)amino]-2-oxo-1-(propan-2-yl)-1,2-dihydroquinolin-3-yl}oxy)-N-methylacetamide] | ≥ 70% | 10 to 50 nM |  | 
